The values below come from article PMC6934184, “Selective DNA-PKcs inhibition extends the therapeutic index of localized radiotherapy and chemotherapy” (The Journal of Clinical Investigation, 2019).

In general, inhibition refers to the change of the read-out against control, counted positive when it falls.

This assay concerns the target T1, CHUK (IKK alpha) (Homo sapiens, UniProt O15111).
T1 construct: purchased Thermo Fisher Scientific (Life Technologies) SelectScreen
The experiment in a line: SelectScreen Adapta. It counts as biochemical. In a few lines:
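NU5455 was profiled across the SelectScreen Broad panel of kinase activity and binding assays. Z'LYTE reactions such as CSF1R ran at apparent Km ATP, while the Adapta CAMK1 assay used ATP listed as 10. Values are given as percent.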

Structures are written as SMILES.

T1 sequence (O15111 whole entry): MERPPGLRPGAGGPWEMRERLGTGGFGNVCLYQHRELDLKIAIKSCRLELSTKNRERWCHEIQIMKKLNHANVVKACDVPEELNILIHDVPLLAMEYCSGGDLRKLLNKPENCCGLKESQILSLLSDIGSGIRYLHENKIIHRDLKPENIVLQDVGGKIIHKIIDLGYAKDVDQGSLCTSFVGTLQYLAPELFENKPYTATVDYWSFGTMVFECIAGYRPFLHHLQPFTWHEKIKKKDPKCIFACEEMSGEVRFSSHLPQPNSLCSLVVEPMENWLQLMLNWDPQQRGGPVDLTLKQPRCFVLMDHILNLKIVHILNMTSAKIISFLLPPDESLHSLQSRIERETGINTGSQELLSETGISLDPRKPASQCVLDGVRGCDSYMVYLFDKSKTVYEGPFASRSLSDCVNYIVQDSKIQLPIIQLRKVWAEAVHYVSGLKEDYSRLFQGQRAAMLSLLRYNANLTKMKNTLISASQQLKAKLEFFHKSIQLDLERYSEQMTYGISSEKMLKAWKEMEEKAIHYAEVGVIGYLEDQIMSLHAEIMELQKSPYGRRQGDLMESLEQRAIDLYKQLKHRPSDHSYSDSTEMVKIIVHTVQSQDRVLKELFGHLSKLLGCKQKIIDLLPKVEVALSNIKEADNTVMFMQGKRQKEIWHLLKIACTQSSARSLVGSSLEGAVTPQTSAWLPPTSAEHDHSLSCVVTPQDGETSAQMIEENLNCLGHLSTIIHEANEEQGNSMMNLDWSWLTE

Turning to `CN(C(=O)CN1CCOCC1)c1ccc2sc3c(-c4cccc5c(=O)cc(N6CC7CCC(C6)O7)oc45)cccc3c2c1` [NU5455], the inhibition at 1 µM is -4.2%.
